Source: patent US6133467A, “2,6-di-t-butyl-4-[(dimethyl-4-methoxyphenylsilyl)-methyl-oxy]phenol and 2,6-di-t-butyl-4-[(dimethyl-2-methoxy-phenylsilyl)methyloxy]phenol” (Hoechst Marion Roussel, Inc., priority 1998, dated 2000)
Like-named read-outs stand apart in the source and are kept apart here.

Experiments:
[1] = system: cholesterol-fed female New Zealand White rabbits (aortic lesions); assay: Antiatherosclerotic effect: aorta staining (Sudan IV) and lesion quantitation in cholesterol-fed female New Zealand White rabbits; type: in vivo, rabbit (New Zealand White; conditions: for Aortic Lesion % of Area, Abdom. (abdominal), as a percent of control: abdominal aorta; for Aortic Lesion % of Area, Abdom. (abdominal), as a percent of control / Aortic Lesion % of Area, Arch, as a percent of control / Aortic Lesion % of Area, Thor. (thoracic), as a percent of control / Aortic Lesion % of Area, Total, as a percent of control: 70 days, diet I 0.15%*, II and III 0.40%; for reduction of total aortic lesions: average, vs control rabbits, 0.15% for Compound I compared to 0.4% for Compound III; for Aortic Lesion % of Area, Thor. (thoracic), as a percent of control: thoracic aorta; for Aortic Lesion % of Area, Total, as a percent of control: total surface area of aorta
Procedure: (§1) Female New Zealand White rabbits (Hazelton, ~2.0-2.3 kg) were fed 0.5% cholesterol/10% corn oil enriched rabbit chow (Purina # 5322) with or without test compound. The experiment was conducted for 70 days. The test compounds were solubilized in 100% ethanol and sprayed on the chow; control chows were sprayed with ethanol. The chows were dried overnight in a chemical fume hood. Rabbits were fed 100 grams food per day; water was available ad libitum. On the last day of the study rabbits (fasted overnight) were bled (~2 mL) from a marginal ear vein periodically to monitor serum cholesterol levels. The rabbits were euthanized on day 70 by carbon dioxide overdose. The total body and liver weights were recorded in grams. Food consumption was recorded as grams.cndot.day^-1. Aliquots of fresh serum were used for clinical chemistries and copper induced thiobarbituric acid reactive substances (TBARS). Aliquots of serum and livers (~5 gram) were frozen at -20° C. for compound and metabolite concentration determination at a later time.
The aortas were dissected from rabbits immediately after they were killed. The aorta from the ascending arch to the iliac bifurcation was excised after debridement of extraneous adipose tissue. Aortas were stored overnight in phosphate buffered saline (PBS)/0.02% sodium azide, pH 7.4, at 4° C. until final debridement. Before staining, aortas were cut open longitudinally and stained with Sudan IV as follows. Sudan IV stain (5.0 g) was added to 500 mL of 70% ethanol, 500 mL of acetone were added, and the solution was stirred overnight at room temperature. The solution was filtered through Whatman #1 filter paper. Aortas were rinsed with 70% ethanol for 10 minutes. They were stained with Sudan IV for 60 min at room temperature, rinsed with 70% ethanol for 5-10 min, and stored in deionized water overnight at 4° C. They were stored in PBS/0.02% sodium azide at 4° C. until imaging could be completed.
The areas containing sudanophilic lesions were quantitated as follows. Aortas were pinned flat onto black plastic sheets, illuminated with several fiber optic light sources, and photographed with a KODAK DCS-420 digital camera mounted on a copy stand. Images were captured and converted to 24 bit color TIFFs with Image Pals image editor software. The resulting images were rescaled to 1024×683 pixels to permit input into the Simple image analysis system and transferred to optical disk storage media. The Simple software was programmed to allow a region of interest to be drawn around the section of the aorta (arch, thoracic, abdominal) which separated the image of the aorta from the pins and the background. the program determined the tissue area in pixels based on pre-selected thresholds of hue, saturation, and intensity. These thresholds were adjusted to recognize the lesion area, and the percent fraction (# lesion pixels/# tissue pixels) was determined. This process was repeated on each portion of the aorta for each rabbit.
(§2) % Control = (Mean, treated group / Mean, control group) × (100)
Total = % area of total surface area of aorta covered with lesions
Arch, Thoracic, Abdominal = % area of each segments of the aorta

[2] = system: serum cholesterol and triglycerides; assay: Clinical chemistries: serum total cholesterol and triglycerides in cholesterol-fed rabbits; type: in vivo, rabbit (New Zealand White, female); conditions: for TRIG (triglycerides) as a percent of control / chol tot. (total cholesterol) as a percent of control: serum, 70 days, diet I 0.15%*, II and III 0.40%; for increase of triglycerides: vs control rabbits
Procedure: as §1
Blood was allowed to clot at room temperature for 30 minutes. Serum was obtained after centrifugation for 10 min at 5° C. at 3000 rpm in a Beckman GPKR centrifuge with a GH 3.7 rotor. Fresh serum was analyzed by a COBA MIRA S autoanalyzer (Roche Diagnostics) using Roche diagnostic reagents for total cholesterol (CHOL, kit # 44334) and triglyceride (TG, kit # 44120). Cholesterol and triglycerides were calculated as mg/dL.
as §2
CHOL = total cholesterol mg/dL
TRIG = triglycerides, mg/dL

[3] = system: serum lipid oxidation (TBARS); assay: TBARS assay: copper-induced oxidation of serum lipids from treated rabbits; type: in vivo, rabbit (New Zealand White, female); conditions: CuSO4 37° C. 5 hr, diet I 0.15%*, II and III 0.40%
Procedure: as §1
TBARS are a […] indication of the oxidation of lipids in a sample. Mao, S J T et al. Meth. of Enzymol. 234, 517-525 (1994). In this assay copper sulfate was used to initiate the oxidation serum lipids, resulting in the formation of aldehydes, such as malondialdehyde (MDA). Upon incubation with thiobarbituric acid, the absorbance of the aldehydes was detected at 530-540 nm. TBARS values which are lower than control serum values indicate the relative ability of a test compound to inhibit the oxidation. TBARS were measured as follows: 50 μL of serum were mixed with 50 μL of 0.9% saline and 400 μL of a 5 mmol CuSO4 solution and incubated at 37° C. for 5 hr. The reactions were stopped by addition of 1.0 mL of 20% trichloroacetic acid. […] Absorbances were measured at 540 nm using a Biotek model EL311 microplate reader. The nmoles of MDA produced were calculated from a standard curve of 0 to 10 nmoles of MDA prepared from malonaldehyde bis(dimethyacetal). […]
TBARS = thiobarbituric acid reactive substances, expressed as nmole MDA

[4] = Body weight and liver weight/body weight in cholesterol-fed rabbits; type: in vivo, rabbit (New Zealand White, female); conditions: II and III 0.40%; for body wt. as a percent of control: 70 days in 0.5% cholesterol/10% corn oil chow, diet I 0.15% (0.4% × 7 days, 0% × 7 days, then 0.15% × 56 days); for lw/bw (liver weight / body weight) as a percent of control: 70 days, diet I 0.15%*
Procedure: as §1, §2
Body wt. = weight in kilograms
liver wt. = weight in kilograms
LW/BW = (liver weight / body weight)

[5] = HPLC quantitation of serum and liver compound and metabolite concentration; type: in vivo, rabbit (New Zealand White, female); conditions: for concentration at 1680 h: rabbit, po; for Serum Parent: parent compound concentration: 100800 min
Procedure: as §1
Serum and liver concentrations of parent compounds and the metabolites, bisphenol and diphenoquinone, were determined by reverse phase HPLC using a Waters 990 Powerline system. Mao, S. J. T. et al., Meth. of Enzymol. 234, 517-525 (1994); Satoni, D. K. and Coutant, J. E., J. Chrom. 380, 401-406 (1986). Livers (1 gram) were homogenized with 5.0 mL PBS, pH 7.4, using a Polytron tissue homogenizer at setting 5 for 20-30 seconds. Serum or liver homogenates were extracted as follows: 100 μL of serum or homogenate were added to 2.0 mL diethyl ether: ethanol (3:1) while vortexing the tube. The sample tubes were capped and centrifuged for 10 min at 5° C. at 3500 rpm in a Beckman GPKR centrifuge with a GH 3.7 rotor. The supernatants were transferred to clean tubes and dried under N2. Samples were reconstituted with 200 μL of acetonitrile:hexane:0.1 M ammonium acetate (90:6.5:3.5, by vol.). Then, 100 μL were injected onto a Waters Deltapak C18-300 Å column, and eluted with an 83% acetonitrile: 17% water mobile phase at a flow rate of 1.5 mL/min. Absorbances at the wavelengths of 240, 254, and 420 nm were recorded. Compound concentrations were calculated from known quantities of authentic parent compounds after correction for recovery; the range of recovery from spiked samples was 40 to 100%. The lowest detectable limit for this class of compounds was ~0.5 μg/mL. Concentrations were calculated as of μg/mL serum and of […].
Sample compound concentrations in serum and liver are presented as
μg/mL or μg/g, respectively.
Serum Parent = parent compound concentration as μg/mL of serum
Serum Bis = bisphenol concentration as μg/mL of serum
Serum Quin = diphenoquinone concentration as […]
Liver Parent = parent compound concentration as μg/g liver
Liver Bis = bisphenol concentration as μg/g liver
Liver Quin = diphenoquinone concentration as μg/g liver
0 = value less than detectable limit of HPLC system

[6] = liver, diet I 0.15%*, II and III 0.40%, read-out: Liver Parent: parent compound concentration
[7] = liver, read-out: concentration of parent compound in livers
[8] = serum, diet I 0.15% (0.4% × 7 days, 0% × 7 days, then 0.15% × 56 days), II and III 0.40%, read-out: Serum Parent: parent compound concentration
[9] = serum, diet I 0.15% (0.4% × 7 days, 0% × 7 days, then 0.15% × 56 days), II and III 0.40%

SMILES	Aortic Lesion % of Area, Abdom. (abdominal), as a percent of control [1]	Aortic Lesion % of Area, Arch, as a percent of control [1]	reduction of total aortic lesions [1]	Aortic Lesion % of Area, Thor. (thoracic), as a percent of control [1]	Aortic Lesion % of Area, Total, as a percent of control [1]	TRIG (triglycerides) as a percent of control [2]	chol tot. (total cholesterol) as a percent of control [2]	TBARS (nmole MDA) as a percent of control [3]	body wt. as a percent of control [4]	lw/bw (liver weight / body weight) as a percent of control [4]	concentration at 1680 h [5, 6]	concentration at 1680 h [5, 7]	concentration at 1680 h [5, 8]	bisphenol and diphenoquinone metabolites in serum and livers [5]	Serum Parent: parent compound concentration [5, 9]	increase of triglycerides [2]
CC(C)(C)c1cc(SC[Si](C)(C)c2ccccc2)cc(C(C)(C)C)c1O [Compound III, 2,6-di-t-butyl-4-[(dimethylphenylsilyl)methylthio]phenol, reference compound]	30%	50%	57%	30%	43%	783%	64%	18%	89%	98%	323000 ng/g	323 µg/mL	182 µg/mL	undesirably high concentrations in both serum and livers	182.4 µg/mL	–
COc1ccccc1[Si](C)(C)COc1cc(C(C)(C)C)c(O)c(C(C)(C)C)c1 [Compound II, 2,6-di-t-butyl-4-[(dimethyl-2-methoxyphenylsilyl)methyloxy]phenol]	50%	56%	–	44%	55%	100%	79%	90%	98%	86%	80900 ng/g	80.9 µg/mL	93.3 µg/mL	none of the bisphenol and diphenoquinone metabolites of Compounds I or II were detected in either serum or livers	93.3 µg/mL	did not show an undesirable increase of triglycerides
COc1ccc([Si](C)(C)COc2cc(C(C)(C)C)c(O)c(C(C)(C)C)c2)cc1 [Compound I, 2,6-Di-t-butyl-4-[(dimethyl-4-methoxyphenylsilyl)methyloxy]phenol]	10%	5%	96%	3%	4%	22%	28%	56%	95%	89%	44900 ng/g	44.9 µg/mL	7.3 µg/mL	none of the bisphenol and diphenoquinone metabolites of Compounds I or II were detected in either serum or livers	7.3 µg/mL	did not show an undesirable increase of triglycerides
